In ChEMBL document CHEMBL4627328, “Synthesis and in vitro evaluation of antimycobacterial and cytotoxic activity of new α,β-unsaturated amide, oxazoline and oxazole derivatives from l-serine” (Bioorg Med Chem Lett, 2020):
Converted amounts (≈) assume the structure as drawn.

Tested on: Mycobacterium tuberculosis
Test: Antimycobacterial activity against multidrug resistant Mycobacterium tuberculosis G122 incubated for 5 days by alamar blue based colorimetric assay
Assay type: functional
Settings: G122, 120 h

Compound | MIC
O=C(/C=C/c1ccccc1)O/C(=N/C1CCCCC1)NC1CCCCC1 | > 282 µM
Cc1ccc(/C=C/C(=O)O/C(=N/C2CCCCC2)NC2CCCCC2)cc1 | > 271 µM
COC(=O)[C@H](CO)NC(=O)/C=C/c1ccc(F)cc1 | > 374 µM
COC(=O)c1coc(/C=C/c2ccc(F)cc2)n1 | 50.5 µM (≈ 12.5 µg/mL)
COC(=O)c1coc(/C=C/c2ccc(OC)cc2)n1 | 48.2 µM (≈ 12.5 µg/mL)
COC(=O)[C@H](COC(=O)/C=C/c1ccc(F)cc1)NC(=O)/C=C/c1ccc(F)cc1 | > 241 µM
COC(=O)[C@H](CO)NC(=O)/C=C/c1ccc(C)cc1 | > 380 µM
O=C(/C=C/c1ccc(F)cc1)O/C(=N/C1CCCCC1)NC1CCCCC1 | > 268 µM
CC[C@@H](CO)NCCN[C@@H](CC)CO [ETHAMBUTOL] | > 30.5 µM
COC(=O)[C@H](COC(=O)/C=C/c1ccccc1)NC(=O)/C=C/c1ccccc1 | > 264 µM
COC(=O)c1coc(/C=C/c2ccc(C)cc2)n1 | 25.7 µM (≈ 6.25 µg/mL)
COC(=O)[C@H](COC(=O)/C=C/c1ccc(OC)cc1)NC(=O)/C=C/c1ccc(OC)cc1 | > 228 µM
COC(=O)[C@H](COC(=O)/C=C/c1ccc(C)cc1)NC(=O)/C=C/c1ccc(C)cc1 | > 245 µM
COC(=O)[C@@H]1COC(/C=C/c2ccccc2)=N1 | 54.1 µM (≈ 12.5 µg/mL)
COC(=O)[C@H](CO)NC(=O)/C=C/c1ccccc1 | > 401 µM
COC(=O)c1coc(/C=C/c2ccccc2)n1 | 54.5 µM (≈ 12.5 µg/mL)
COC(=O)[C@@H]1COC(/C=C/c2ccc(OC)cc2)=N1 | 47.8 µM (≈ 12.5 µg/mL)
CO[C@H]1/C=C/O[C@@]2(C)Oc3c(C)c(O)c4c(O)c(c(/C=N/N5CCN(C)CC5)c(O)c4c3C2=O)NC(=O)/C(C)=C\C=C\[C@H](C)[C@H](O)[C@@H](C)[C@@H](O)[C@@H](C)[C@H](OC(C)=O)[C@@H]1C [RIFAMPIN] | 0.23 µM (≈ 0.189 µg/mL)
COC(=O)[C@@H]1COC(/C=C/c2ccc(C)cc2)=N1 | 50.9 µM (≈ 12.5 µg/mL)
COC(=O)[C@@H]1COC(/C=C/c2ccc(F)cc2)=N1 | 100 µM (≈ 25 µg/mL)
COC(=O)[C@H](CO)NC(=O)/C=C/c1ccc(OC)cc1 | > 358 µM
C[C@H]1COc2c(N3CCN(C)CC3)c(F)cc3c(=O)c(C(=O)O)cn1c23 [LEVOFLOXACIN] | 0.54 µM (≈ 0.195 µg/mL)
